Experimental data from paper PMC6173696, “Structural properties of a haemophore facilitate targeted elimination of the pathogen Porphyromonas gingivalis” (Nature Communications, 2018).

Legend:
[1] = molecular target: T1, IsdH(Y642A) (Staphylococcus aureus, UniProt Q931P4, Y642A); assay type: physicochemical; details: haemin bound to IsdH (Y642A)
T1 sequence (Q931P4 41-891 Y642A): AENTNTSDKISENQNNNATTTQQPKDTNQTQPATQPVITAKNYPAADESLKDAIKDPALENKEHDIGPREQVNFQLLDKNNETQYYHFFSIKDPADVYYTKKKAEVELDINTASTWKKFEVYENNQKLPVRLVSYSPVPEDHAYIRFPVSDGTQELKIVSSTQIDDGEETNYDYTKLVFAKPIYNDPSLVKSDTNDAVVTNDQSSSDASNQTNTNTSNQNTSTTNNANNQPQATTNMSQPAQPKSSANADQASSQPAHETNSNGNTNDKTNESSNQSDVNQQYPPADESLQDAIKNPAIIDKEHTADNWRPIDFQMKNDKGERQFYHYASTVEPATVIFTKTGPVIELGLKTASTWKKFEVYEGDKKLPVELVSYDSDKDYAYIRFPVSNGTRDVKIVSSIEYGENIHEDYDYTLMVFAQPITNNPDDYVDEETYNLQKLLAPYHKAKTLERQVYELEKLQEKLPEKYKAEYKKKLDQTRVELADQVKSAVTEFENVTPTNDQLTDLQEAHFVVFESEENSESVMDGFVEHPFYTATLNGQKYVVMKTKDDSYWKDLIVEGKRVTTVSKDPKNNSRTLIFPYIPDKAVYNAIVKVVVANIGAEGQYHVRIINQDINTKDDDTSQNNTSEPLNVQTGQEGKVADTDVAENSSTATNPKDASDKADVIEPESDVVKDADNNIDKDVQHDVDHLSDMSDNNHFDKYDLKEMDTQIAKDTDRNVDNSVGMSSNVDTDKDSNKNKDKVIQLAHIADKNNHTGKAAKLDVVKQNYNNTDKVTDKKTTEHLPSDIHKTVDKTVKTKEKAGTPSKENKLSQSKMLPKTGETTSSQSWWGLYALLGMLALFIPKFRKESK
Description: Supplementary Figure 16. Acid-alkaline transition in UV-vis spectra of various haem binding proteins. (Top) UV-visible spectra (units of wavelength are nm) used to generate the pH titration curves shown in Figure 2h and in the bottom panel. (Bottom) Acid-alkaline titration of 5 µM haemin in presence of 7 µM IsdH, 5 µM IsdB, 7 µM IsdH(Y642A) and 7 µM p22HBP. All proteins are in holo form. See Fig 2h legend for buffer conditions. Absorbance A600–A650 values are plotted except for IsdH and IsdB, for which A630–A600 is plotted (to avoid negative values). […]

[2] = assay type: physicochemical; details: aqueous haemin, 5 µM
Description: Spectra were recorded in 0.1 M NaCl with 0.1 M of the following buffers: citrate, pH 5.0; BisTris-HCl, pH 5.5; BisTris-HCl, pH 5.75: BisTris-HCl, pH 6.0; sodium phosphate, pH 6.5; sodium phosphate, pH 7.0; sodium phosphate, pH 7.5; Tris-HCl, pH 8.0; sodium borate, pH 9.0; sodium borate/NaOH, pH 9.8; sodium carbonate, pH 10.0 (not all titration points were collected for each protein)

[3] = molecular target: HusA; details: previously reported; now considered far weaker; cited from earlier work

Compound: C=CC1=C(C)c2cc3[nH]c(cc4nc(cc5[nH]c(cc1n2)c(C)c5CCC(=O)O)C(CCC(=O)O)=C4C)c(C)c3C=C.[Fe+3] [haemin]
- pKa of acid-alkaline transition [1]: 5.9
- pKa of acid-alkaline transition [2]: 6.7
- Kd [3]: ~2 nM
